Experimental data as given in US20240360154A1, “AROYL SUBSTITUTED TRICYCLIC COMPOUND, PREPARATION METHOD THEREFOR AND USE THEREOF” (GENFLEET THERAPEUTICS (SHANGHAI) INC., priority 2020, published 2024).
pIC50: −log10 of the molar value.

Columns and labels:
BTK = BTK (Homo sapiens (Human), UniProt Q06187); test: BTK enzyme experiment (ADP-Glo kinase assay); type: biochemical; conditions: 10 nM BTK, ATP 125 μM, Poly(Glu4, Tyr1), 90 minutes at 20° C.; read-out: BTK(WT) IC50
Protocol: (§1) A 3-fold gradient concentration stock solution of 1000× compound was prepared using DMSO and diluted 100-fold to 10× compound stock solution using reaction buffer (50 mM HEPES, pH 7.5, 0.0015% Briji-35, 2 mM DTT, 10 mM MgCl2), and the 10× compound stock solution was transferred to a 384-well plate. Enzyme reactions were set up with BTK Kinase Enzyme System (Promega Catalog #V2941) or BTK (C481S) Kinase Enzyme System (Promega Catalog #VA7033). First, a 2× enzyme solution containing 10 nM BTK or 10 nM BTK C481S was prepared with reaction buffer and added to the plate, and incubated with the compound for 10 minutes. […] Finally, the kinase activity was detected according to the experimental steps provided by ADP-Glo™ kinase Assay Kit (Promega, #V9101), and finally the luminescence chemiluminescence value was read. DMSO was used as the maximum signal value, and adding no enzyme was used as the minimum signal value. The inhibition rate of the compound (%)=(maximum signal value−compound signal value)/(maximum signal value−minimum signal value)×100% was calculated. The compound gradient dilution concentration and the corresponding inhibition rate of the enzyme activity were fit by using XLFit four-parameter method, and IC50 value was calculated.

BTK (C481S) = BTK (C481S) (Homo sapiens (Human), UniProt Q06187, C481S); test: BTK C481S enzyme experiment (ADP-Glo kinase assay); type: biochemical; conditions: 10 nM BTK C481S, ATP 125 μM, Poly(Glu4, Tyr1), 90 minutes at 20° C.
Chain of BTK (C481S) (Q06187 whole entry C481S): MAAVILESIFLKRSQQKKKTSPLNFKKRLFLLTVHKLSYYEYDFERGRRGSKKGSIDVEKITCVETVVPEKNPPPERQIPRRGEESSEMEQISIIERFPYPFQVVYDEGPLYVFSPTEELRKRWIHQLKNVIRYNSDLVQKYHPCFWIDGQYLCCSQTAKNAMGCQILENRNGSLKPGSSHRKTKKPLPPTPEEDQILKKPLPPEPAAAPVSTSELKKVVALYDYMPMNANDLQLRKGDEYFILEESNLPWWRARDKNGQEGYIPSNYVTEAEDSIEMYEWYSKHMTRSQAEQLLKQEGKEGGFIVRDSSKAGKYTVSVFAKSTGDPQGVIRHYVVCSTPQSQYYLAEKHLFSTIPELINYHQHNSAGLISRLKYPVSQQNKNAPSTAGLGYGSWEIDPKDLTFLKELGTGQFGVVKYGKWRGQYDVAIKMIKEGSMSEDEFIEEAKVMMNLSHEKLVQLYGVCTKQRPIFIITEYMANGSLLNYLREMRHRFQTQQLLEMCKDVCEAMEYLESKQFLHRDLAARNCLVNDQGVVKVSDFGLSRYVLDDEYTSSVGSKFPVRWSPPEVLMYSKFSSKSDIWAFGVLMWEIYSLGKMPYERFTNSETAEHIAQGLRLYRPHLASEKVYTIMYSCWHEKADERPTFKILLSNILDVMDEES
Protocol: as §1

Chain of BTK (Q06187 whole entry): as the sequence (Q06187 whole entry C481S) above, with S481C counted along it

SMILES	pIC50 (BTK)	pIC50 (BTK (C481S))
N#C[C@H]1CC[C@@]2(C1)Nc1c(cnc3[nH]cc(C(=O)c4ccc(Oc5ccccc5)cc4Cl)c13)NC2=O (single isomer, unassigned) [Z26-4]	7.44	7.55
COCC1(C)Nc2c(cnc3[nH]cc(C(=O)c4ccc(Oc5ccccc5)cc4Cl)c23)N(C)C1=O (single isomer, unassigned) [Z52-2, 9-(2-chloro-4-phenoxybenzoyl)-2-(methoxymethyl)-2,4-dimethyl-1,2,4,7-tetrahydro-3H-pyrrolo[3′,2′:5,6]pyrido[3,4-b]pyrazin-3-one]	6.87	7.03
COCC1(C)Nc2c(cnc3[nH]cc(C(=O)c4ccc(Oc5cc(C)ccn5)cc4Cl)c23)NC1=O (single isomer, unassigned) [Z64-2, 9-(2-chloro-4-((4-methylpyridin-2-yl)oxy)benzoyl)-2-(methoxymethyl)-2-methyl-1,2,4,7-tetrahydro-3H-pyrrolo[3′,2′:5,6]pyrido[3,4-b]pyrazin-3-one]	8.08	7.76
CCOC[C@@]1(C)Nc2c(cnc3[nH]cc(C(=O)c4ccc(Oc5ccccc5)cc4Cl)c23)NC1=O (single isomer, unassigned) [Z67-2]	7.69	7.75
COCC1(C)Nc2c(cnc3[nH]cc(C(=O)c4ccc(Oc5cc(C)ccn5)cc4F)c23)NC1=O (single isomer, unassigned) [Z69-1, 9-(2-fluoro-4-((4-methylpyridin-2-yl)oxy)benzoyl)-2-(methoxymethyl)-2-methyl-1,2,4,7-tetrahydro-3H-pyrrolo[3′,2′:5,6]pyrido[3,4-b]pyrazin-3-one]	7.86	7.67
COCC1(C)Nc2c(cnc3[nH]cc(C(=O)c4ccc(Oc5cc(C)ccn5)cc4F)c23)NC1=O (single isomer, unassigned) [Z69-2, 9-(2-fluoro-4-((4-methylpyridin-2-yl)oxy)benzoyl)-2-(methoxymethyl)-2-methyl-1,2,4,7-tetrahydro-3H-pyrrolo[3′,2′:5,6]pyrido[3,4-b]pyrazin-3-one]	7.76	7.55
CN1CCC2(CC1)Nc1c(cnc3[nH]cc(C(=O)c4ccc(Oc5ccccc5)cc4Cl)c13)NC2=O [Z17, 9′-(2-chloro-4-phenoxybenzoyl)-1-methyl-4′,7′-dihydrospiro[piperidine-4,2′-pyrrolo[3′,2′:5,6]pyrido[3,4-b]pyrazin]-3′(1′H)-one]	6.46	6.56
CN1CCCC2(C1)Nc1c(cnc3[nH]cc(C(=O)c4ccc(Oc5ccccc5)cc4Cl)c13)NC2=O (centres unmarked) [Z19, 9′-(2-chloro-4-phenoxybenzoyl)-1-methyl-4′,7′-dihydrospiro[piperidine-3,2′-pyrrolo[3′,2′:5,6]pyrido[3,4-b]pyrazin]-3′(1′H)-one]	7.64	7.90
COCC1(C)Nc2c(cnc3[nH]cc(C(=O)c4ccc(Oc5cc(C)ccn5)cc4F)c23)NC1=O (centres unmarked) [Z69, 9-(2-fluoro-4-((4-methylpyridin-2-yl)oxy)benzoyl)-2-(methoxymethyl)-2-methyl-1,2,4,7-tetrahydro-3H-pyrrolo[3′,2′:5,6]pyrido[3,4-b]pyrazin-3-one]	7.46	7.55
COC[C@]1(C)Nc2c(cnc3[nH]cc(C(=O)c4ccccc4Cl)c23)NC1=O [Z79, (S)-9-(2-chlorobenzoyl)-2-(methoxymethyl)-2-methyl-1,2,4,7-tetrahydro-3H-pyrrolo[3′,2′:5,6]pyrido[3,4-b]pyrazin-3-one]	8.24	8.49
COC[C@]1(C)Nc2c(cnc3[nH]cc(C(=O)c4cc(F)ccc4Cl)c23)NC1=O [Z85, (S)-9-(2-chloro-5-fluorobenzoyl)-2-(methoxymethyl)-2-methyl-1,2,4,7-tetrahydro-3H-pyrrolo[3′,2′:5,6]pyrido[3,4-b]pyrazin-3-one]	7.82	7.73
COC[C@]1(C)Nc2c(cnc3[nH]cc(C(=O)c4ccc(OC5CCCC5)cc4Cl)c23)NC1=O [Z122, (S)-9-(2-chloro-4-(cyclopentyloxy)benzoyl)-2-(methoxymethyl)-2-methyl-1,2,4,7-tetrahydro-3H-pyrrolo[3′,2′:5,6]pyrido[3,4-b]pyrazin-3-one]	7.19	7.15
COC[C@]1(C)Nc2c(cnc3[nH]cc(C(=O)c4ccc(Oc5ccccc5)cc4)c23)NC1=O [Z125-1, (S)-2-(methoxymethyl)-2-methyl-9-(4-phenoxybenzoyl)-1,2,4,7-tetrahydro-3H-pyrrolo[3′,2′:5,6]pyrido[3,4-b]pyrazin-3-one]	7.55	7.54
COC[C@]1(C)Nc2c(cnc3[nH]cc(C(=O)c4ccc(Oc5cc(C)cc(C)n5)cc4Cl)c23)NC1=O [Z127-1, (S)-9-(2-chloro-4-((4,6-dimethylpyridin-2-yl)oxy)benzoyl)-2-(methoxymethyl)-2-methyl-1,2,4,7-tetrahydro-3H-pyrrolo[3′,2′:5,6]pyrido[3,4-b]pyrazin-3-one]	7.54	7.50

Further lines, results first:

pIC50 (BTK)	pIC50 (BTK (C481S))	SMILES
7.63	7.72	COC[C@]1(C)Nc2c(cnc3[nH]cc(C(=O)c4ccc(Oc5ccccc5)cc4F)c23)NC1=O (single isomer, unassigned) [Z71-2]
7.82	7.53	COCC1(C)Nc2c(cnc3[nH]cc(C(=O)c4ccc(Oc5cc(C6CC6)ccn5)cc4Cl)c23)NC1=O (single isomer, unassigned) [Z73-1, 9-(2-chloro-4-((4-cyclopropylpyridin-2-yl)oxy)benzoyl)-2-(methoxymethyl)-2-methyl-4,7-dihydro-1H-pyrrolo[3′,2′:5,6]pyrido[3,4-b]pyrazin-3(2H)-one]
7.46	7.22	COCC1(C)Nc2c(cnc3[nH]cc(C(=O)c4ccc(Oc5cc(C6CC6)ccn5)cc4Cl)c23)NC1=O (single isomer, unassigned) [Z73-2, 9-(2-chloro-4-((4-cyclopropylpyridin-2-yl)oxy)benzoyl)-2-(methoxymethyl)-2-methyl-4,7-dihydro-1H-pyrrolo[3′,2′:5,6]pyrido[3,4-b]pyrazin-3(2H)-one]
6.94	7.29	COCCOCC1(C)Nc2c(cnc3[nH]cc(C(=O)c4ccc(Oc5ccccc5)cc4Cl)c23)NC1=O (single isomer, unassigned) [Z153-2, 9-(2-chloro-4-phenoxybenzoyl)-2-((2-methoxyethoxy)methyl)-2-methyl-1,2,4,7-tetrahydro-3H-pyrrolo[3′,2′:5,6]pyrido[3,4-b]pyrazin-3-one]
6.84	7.06	O=C(c1ccc(Oc2ccccc2)cc1Cl)c1c[nH]c2ncc3c(c12)NC1(CCOC1)CO3 (centres unmarked) [Z18]
7.57	8.14	CN1C(=O)C2(CCOCC2)Nc2c1cnc1[nH]cc(C(=O)c3ccc(Oc4ccccc4)cc3Cl)c21 [Z22, 9′-(2-chloro-4-phenoxybenzoyl)-4′-methyl-2,3,4′,5,6,7′-hexahydrospiro[pyran-4,2′-pyrrolo[3′,2′:5,6]pyrido[3,4-b]pyrazin]-3′(1′H)-one]
6.85	6.92	CC1(CO)Nc2c(cnc3[nH]cc(C(=O)c4ccc(Oc5ncccc5C(F)(F)F)cc4Cl)c23)NC1=O (centres unmarked) [Z55, 9-(2-chloro-4-((3-(trifluoromethyl)pyridin-2-yl)oxy)benzoyl)-2-(hydroxymethyl)-2-methyl-4,7-dihydro-1H-pyrrolo[3′,2′:5,6]pyrido[3,4-b]pyrazin-3(2H)-one]
7.64	7.74	Cc1ccnc(Oc2ccc(C(=O)c3c[nH]c4ncc5c(c34)NC(C)(CO)C(=O)N5)c(Cl)c2)c1 (centres unmarked) [Z56, 9-(2-chloro-4-((4-methylpyridin-2-yl)oxy)benzoyl)-2-(hydroxymethyl)-2-methyl-1,2,4,7-tetrahydro-3H-pyrrolo[3′,2′:5,6]pyrido[3,4-b]pyrazin-3-one]
6.73	6.89	CN(C)CCN1C(=O)C(C)(C)Nc2c1cnc1[nH]cc(C(=O)c3ccc(Oc4ccccc4)cc3Cl)c21 [Z63]
7.80	8.01	COC[C@]1(C)Nc2c(cnc3[nH]cc(C(=O)c4ccccc4Br)c23)NC1=O [Z86, (S)-9-(2-bromobenzoyl)-2-(methoxymethyl)-2-methyl-1,2,4,7-tetrahydro-3H-pyrrolo[3′,2′:5,6]pyrido[3,4-b]pyrazin-3-one]
7.63	8.12	COC[C@]1(C)Nc2c(cnc3[nH]cc(C(=O)c4ccccc4)c23)NC1=O [Z89, (S)-9-benzoyl-2-(methoxymethyl)-2-methyl-1,2,4,7-tetrahydro-3H-pyrrolo[3′,2′:5,6]pyrido[3,4-b]pyrazin-3-one]
7.70	8.01	COC[C@]1(C)Nc2c(cnc3[nH]cc(C(=O)c4sccc4Cl)c23)NC1=O [Z103, (S)-9-(3-chlorothiophene-2-carbonyl)-2-(methoxymethyl)-2-methyl-1,2,4,7-tetrahydro-3H-pyrrolo[3′,2′:5,6]pyrido[3,4-b]pyrazin-3-one]
7.21	7.21	COC[C@]1(C)Nc2c(cnc3[nH]cc(C(=O)c4ccc(OC)cc4Cl)c23)NC1=O [Z113, (S)-9-(2-chloro-4-methoxybenzoyl)-2-(methoxymethyl)-2-methyl-1,2,4,7-tetrahydro-3H-pyrrolo[3′,2′:5,6]pyrido[3,4-b]pyrazin-3-one]
7.54	7.42	COC[C@]1(C)Nc2c(cnc3[nH]cc(C(=O)c4ncc(Oc5ccccc5)cc4Cl)c23)NC1=O [Z133]
